According to patent US20180235909A1, “Use of 1-phenyl-3-dimethylaminopropane Compounds for Treating Rheumatoid Pain” (Gruenenthal GmbH, priority 2009, published 2018):

System: CFA-induced chronic arthritic pain
Experiment: CFA-induced chronic knee joint arthritic pain in rats, weight bearing (incapacitance tester)
Settings: for Side effects at higher doses: doses higher than the highest analyzed dose; for Analgesic efficacy (mean percentage of maximal possible effect, weight bearing): highest possible dose without readout confounding side effects, five days post intraarticular CFA, n=10

CC[C@@H](c1cccc(O)c1)[C@@H](C)CN(C)C [Tapentadol, (−)-(1R,2R)-3-(3-dimethylamino-1-ethyl-2-methyl-propyl)¬phenol]
Side effects at higher doses (rats): readout (weight bearing) confounding side effects
Effect on CFA-induced decrease in weight bearing (i.v. administration, rats, dose dependence): significantly reduced the CFA-induced decrease in weight bearing in a dose dependent manner

CN1CC[C@]23c4c5ccc(O)c4O[C@H]2[C@@H](O)C=C[C@H]3[C@H]1C5 [Morphine]
Analgesic efficacy (mean percentage of maximal possible effect, weight bearing) (2.15 mg/kg iv): 59.6% @ 2.15 mg/kg
Analgesic efficacy (mean percentage of maximal possible effect, weight bearing) (2.15 mg/kg iv, listed as morphine): 59.6%
Side effects at higher doses (rats): readout (weight bearing) confounding side effects

CC(C)Cc1ccc(C(C)C(=O)O)cc1 (centres unmarked) [Ibuprofen]
Analgesic efficacy (mean percentage of maximal possible effect, weight bearing) (147 mg/kg ip): 54.7% @ 147 mg/kg
Analgesic efficacy (mean percentage of maximal possible effect, weight bearing) (147 mg/kg ip, listed as ibuprofen): 54.7%
Side effects at higher doses (rats): readout (weight bearing) confounding side effects

COc1ccc2c3c1O[C@H]1C(=O)CC[C@@]4(O)[C@@H](C2)N(C)CC[C@]314 [Oxycodone]
Analgesic efficacy (mean percentage of maximal possible effect, weight bearing) (0.464 mg/kg i.v.): 46.1% @ 0.464 mg/kg
Analgesic efficacy (mean percentage of maximal possible effect, weight bearing) (0.464 mg/kg i.v., listed as oxycodone): 46.1%
Side effects at higher doses (rats): readout (weight bearing) confounding side effects
